# Results published in US11209437B2, “Fluorescent probe and preparation method and use thereof” (Fluorescence Diagnosis (shanghai) Biotech Company Ltd., priority 2016, dated 2021).
# Assays:
# [1] = Viscosity responsiveness: fluorescence emission spectra of probes in glycerol and methanol; format: physicochemical; conditions: for Emission wavelength: excited at maximum excitation wavelength of each probe; for Fluorescence ratio in glycerol to methanol: probe 1×10^−5 M
# Experimental: Probes 1 to 98, 101, 103, 105, 107, 109, 111, 114, 117, and 120, and the reference probes 99, 100, 102, 104, 106, 108, 110, 112, 113, 115, 116, 118, 119, 121, BG-CCVJ and BG-Gly-CCVJ were dissolved in dimethyl sulfoxide, respectively, to prepare mother liquors having a concentration of 1×10^−2 M, to each of which glycerol and methanol were added and uniformly mixed, to prepare solutions finally having a concentration of 1×10^−5 M. Depending on the probes, fluorescence emission spectra of the probes were detected successively with the maximum excitation wavelength of each probe under the same conditions, and the results were shown in Table 1.
# That is, these probes are sensitive to viscosity changes and have viscosity responsiveness.
# [2] = Fluorescence of free probe prior to binding to a protein tag; format: physicochemical
# Experimental: (§1) Probes were mixed with corresponding protein tags to obtain mixed samples, in which the final probe concentration was 5 μM, and the final protein tag concentration was 10 μM. The mixed samples were incubated 37° C. for 1 hr, fluorescence spectrophotometer was used to detect the change in fluorescence intensity, and the results are shown in Table 1.
# (§2) From the quantum yield of probe bound to protein tag, after reacting with the protein tags, the probes of the Examples could be detected to have significant signal enhancement in corresponding excitation transmission channels, the fluorescence activation multiple reached several hundreds to a thousand or more, and the brightness was high, which illustrates that after the probes of the Examples are bound to the protein tags, fluorescence of the probes can be activated, and the probes have good fluorescent molecular switching properties. In contrast, though the fluorescence of the reference probes could also be activated, the quantum yield of activated fluorescence was very low, and the brightness was very poor. In particular, in view of comparison results between probe 98 and reference probe 99, probe 101 and reference probe 102, probe 103 and reference probe 104, probe 105 and reference probe 106, probe 107 and reference probe 108, probe 109 and reference probe 110, probe 111 and reference probe 112, probe 114 and reference probe 115, probe 117 and reference probe 118, probe 120 and reference probe 121 in Table 1, for the same fluorescent dye, when the ligand is connected to the electron donor part of the fluorescent dye, the fluorescence activation brightness of the probe is much higher than the reference probe in which ligand is connected to the electron acceptor part of the fluorescent dye.
# SNAP protein tags = biological target: T1, SNAP protein tags (Homo sapiens, UniProt P16455, A127T/A154D/C150Q/C62A/E30R/G131K/G132T/G153L/K125A/K32I/L33F/M134L/N157G/Q115S/Q116H/R128A/R135S/S151G/S152D/S159E); assay: Fluorescence activation of probe after incubation with corresponding protein tag (SNAP); format: biochemical; conditions: probe 5 μM, protein tag 10 μM, 37° C., 1 hr
# T1 sequence (P16455 1-182 E30R/K32I/L33F/C62A/Q115S/Q116H/K125A/A127T/R128A/G131K/G132T/M134L/R135S/C150Q/S151G/S152D/G153L/A154D/N157G/S159E): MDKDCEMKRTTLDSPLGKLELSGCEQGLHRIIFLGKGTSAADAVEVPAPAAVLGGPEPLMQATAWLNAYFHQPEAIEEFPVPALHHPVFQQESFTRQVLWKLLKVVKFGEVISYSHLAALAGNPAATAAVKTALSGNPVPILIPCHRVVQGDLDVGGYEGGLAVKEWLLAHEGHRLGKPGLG
# Experimental: as §1, §2
Structure (SMILES),Emission wavelength [1] [nm],Fluorescence ratio in glycerol to methanol [1],Quantum yield of free probe [2],Fluorescence activation multiple (SNAP protein tags),Quantum yield of probe bound to protein tag (SNAP protein tags)
CN(CCOC(=O)NCc1ccc(COc2nc(N)nc3[nH]cnc23)cc1)c1ccc2nc(/C=C(\C#N)c3nc4ccccc4o3)oc2c1 [probe 46],620,682,<0.001,563,0.21
CN(CCOC(=O)NCc1ccc(COc2nc(N)nc3[nH]cnc23)cc1)c1ccc2nc(/C=C(\C#N)c3nc4ccccc4s3)oc2c1 [probe 47],627,235,<0.001,358,0.26
CN(CCOC(=O)NCc1ccc(COc2nc(N)nc3[nH]cnc23)cc1)c1ccc2nc(/C=C(\C#N)C(=O)O)oc2c1 [probe 49],601,210,<0.001,541,0.11
CN1C(=O)/C(=C\c2nc3ccc(N(C)CCOC(=O)NCc4ccc(COc5nc(N)nc6[nH]cnc56)cc4)cc3o2)N=C1c1ccccc1 [probe 50],612,358,<0.001,416,0.29
CN(CCOC(=O)NCc1ccc(COc2nc(N)nc3[nH]cnc23)cc1)c1ccc2nc(/C=C(\C#N)C(=O)OC(C)(C)C)sc2c1 [probe 51],625,359,<0.001,392,0.25
CN(CCOC(=O)NCc1ccc(COc2cc(Cl)nc(N)n2)cc1)c1ccc2nc(/C=C(\C#N)C(=O)OC(C)(C)C)sc2c1 [probe 52],625,270,<0.001,435,0.25
CN(CCOC(=O)NCc1ccc(COc2nc(N)nc3[nH]cnc23)cc1)c1ccc2nc(/C=C(\C#N)c3nc4ccccc4o3)sc2c1 [probe 54],650,391,<0.001,498,0.17
CN(CCOC(=O)NCc1ccc(COc2nc(N)nc3[nH]cnc23)cc1)c1ccc2nc(/C=C(\C#N)c3nc4ccccc4s3)sc2c1 [probe 55],651,211,<0.001,382,0.25
CN(CCOC(=O)NCc1ccc(COc2nc(N)nc3[nH]cnc23)cc1)c1ccc(C#C/C=C(\C#N)c2nc3ccccc3o2)cc1 [probe 58],590,419,<0.001,519,0.27
CN(CCOC(=O)NCc1ccc(COc2nc(N)nc3[nH]cnc23)cc1)c1cc2c(s1)-c1sc(C=C(C#N)C#N)cc1[Si]2(C)C [probe 73],680,325,0.0031,248,0.76
CN(CCOC(=O)NCc1ccc(COc2nc(N)nc3[nH]cnc23)cc1)c1cc2c(s1)-c1sc(/C=C(/C#N)C(=O)OC(C)(C)C)cc1[Si]2(C)C [probe 74],680,297,0.0025,311,0.78
CN(CCOC(=O)NCc1ccc(COc2nc(N)nc3[nH]cnc23)cc1)c1cc2c(s1)-c1sc(/C=C(/C#N)c3nc4ccccc4o3)cc1[Si]2(C)C [probe 75],700,105,0.0021,211,0.44

# Results, then the molecule that gave them:
Emission wavelength [1] [nm],Fluorescence ratio in glycerol to methanol [1],Quantum yield of free probe [2],Fluorescence activation multiple (SNAP protein tags),Quantum yield of probe bound to protein tag (SNAP protein tags),Structure (SMILES)
600,370,<0.001,498,0.39,CN(CCOC(=O)NCc1ccc(COc2nc(N)nc3[nH]cnc23)cc1)c1ccc(C#C/C=C(\C#N)c2nc3ccccc3s2)cc1 [probe 59]
620,817,0.0012,668,0.77,CN(CCOC(=O)NCc1ccc(COc2nc(N)nc3[nH]cnc23)cc1)c1cc2sc3cc(/C=C(\C#N)c4nc5ccccc5o4)sc3c2s1 [probe 61]
640,711,<0.001,592,0.32,CN(CCOC(=O)NCc1ccc(COc2nc(N)nc3[nH]cnc23)cc1)c1cc2sc3cc(/C=C(\C#N)c4nc5ccccc5s4)sc3c2s1 [probe 62]
620,632,<0.001,519,0.48,CN(CCOC(=O)NCc1ccc(COc2nc(N)nc3[nH]cnc23)cc1)c1ccc2c(c1)sc1cc(C=C(C#N)C#N)sc12 [probe 64]
650,391,<0.001,798,0.66,CN(CCOC(=O)NCc1ccc(COc2nccc(N)n2)cc1)c1ccc2c(c1)sc1cc(/C=C(/C#N)c3nc4ccccc4o3)sc12 [probe 65]
620,276,<0.001,576,0.36,COCCNC(=O)/C(C#N)=C/c1ccc(-c2ccc(N(C)CCOC(=O)NCc3ccc(COc4nc(N)nc5[nH]cnc45)cc3)cc2)s1 [probe 67]
620,381,<0.001,681,0.36,COCCNC(=O)/C(C#N)=C/c1ccc(-c2ccc(N(C)CCOC(=O)NCc3ccc(COc4cc(Cl)nc(N)n4)cc3)cc2)s1 [probe 68]
640,131,0.0026,258,0.68,CN(CCOC(=O)NCc1ccc(COc2nc(N)nc3[nH]cnc23)cc1)c1cc2cc3sc(/C=C(\C#N)C(=O)OC(C)(C)C)cc3cc2s1 [probe 70]
640,121,0.0028,239,0.67,COCCNC(=O)/C(C#N)=C/c1cc2cc3sc(N(C)CCOC(=O)NCc4ccc(COc5nc(N)nc6[nH]cnc56)cc4)cc3cc2s1 [probe 71]
